Earlier results as cited in patent US20030220374A1, “Compositions and methods of treatment involving peroxisome proliferator-activated receptor-gamma agonists and cyclooxygenase-2 selective inhibitors” (Pharmacia Corporation, priority 2002, published 2003).

What was measured:
[1] = tested on: vascular smooth muscle cell
[2] = tested on: human lung cancer cells; conditions: through the induction of apoptosis
[3] = tested on: human carotid arteries; conditions: in vivo
[4] = tested on: hepatocellular cancer cells
[5] = biological target: T1, PPARγ (Homo sapiens, UniProt P37231)
T1 sequence (P37231 1-505): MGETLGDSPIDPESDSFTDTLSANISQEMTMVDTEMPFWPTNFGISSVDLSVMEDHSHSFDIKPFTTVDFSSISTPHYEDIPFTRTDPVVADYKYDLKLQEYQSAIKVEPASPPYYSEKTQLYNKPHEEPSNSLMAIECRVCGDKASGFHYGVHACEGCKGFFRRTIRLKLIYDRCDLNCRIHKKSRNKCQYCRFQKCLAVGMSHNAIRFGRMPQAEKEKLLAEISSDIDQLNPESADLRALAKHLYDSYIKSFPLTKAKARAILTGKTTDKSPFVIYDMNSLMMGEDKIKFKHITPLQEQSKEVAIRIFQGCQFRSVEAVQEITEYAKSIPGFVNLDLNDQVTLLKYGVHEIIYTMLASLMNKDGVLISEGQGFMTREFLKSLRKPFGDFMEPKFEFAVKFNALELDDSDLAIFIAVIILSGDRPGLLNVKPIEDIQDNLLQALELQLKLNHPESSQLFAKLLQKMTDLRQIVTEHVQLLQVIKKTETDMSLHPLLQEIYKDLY

[6] = tested on: fibroblast growth factor-induced corneal angiogenesis; conditions: rats

**Q.** What does the source list for `Cc1c(C)c2c(c(C)c1O)CCC(C)(COc1ccc(CC3SC(=O)NC3=O)cc1)O2` (single isomer, unassigned; (+)) [Troglitazone, (+)-5-[[4-[(3,4-dihydro-6-hydroxy-2,5,7,8-tetramethyl-2H-1-benzopyran-2-yl)methoxy]phenyl]methyl]-2,4-thiazolidinedione]?
**A.** vascular smooth muscle cell growth [1]: inhibits; growth of human lung cancer cells [2]: inhibited the growth; hyperplasia of human carotid arteries [3]: decreases; growth inhibition of hepatocellular cancer cells [4]: marked growth inhibition

**Q.** With `CCCCC/C=C\C=C1\C(=O)C=C[C@@H]1C/C=C\CCCC(=O)O` [15-deoxy-Δ^12,14-prostaglandin J2, 11-oxo-prosta-5Z,9,12E,14Z-tetren-1-oic acid] as the compound, how does the “growth inhibition of hepatocellular cancer cells” value [4] read?
**A.** marked growth inhibition

**Q.** With `COc1ccc2nc(COc3ccc(CC4SC(=O)NC4=O)cc3)n(C)c2c1` (stereo not shown) [CS-011, CI-1037] as the compound, how does the EC50 [5] read?
**A.** 160 nM

**Q.** For `Cc1ccc(-c2cc(C(F)(F)F)nn2-c2ccc(S(N)(=O)=O)cc2)cc1` [Celecoxib, 4-[5-(4-methylphenyl)-3-(trifluoromethyl)-1H-pyrazol-1-yl]benzenesulfonamide], which “inhibition of fibroblast growth factor-induced corneal angiogenesis” value [6] is on record?
**A.** potent inhibition
